Measured values taken from ChEMBL document CHEMBL4339248, “Secondary Metabolites Produced by Combined Culture of Penicillium crustosum and a Xylaria sp” (J Nat Prod, 2019).
pIC50: −log10 of the molar value. Active and inactive are the calls of the source.

Tests used:
[1] = system: Mycolicibacterium phlei; experiment: Antimicrobial activity against Mycobacterium phlei by BSAC standardized disc susceptibility testing method; assay type: functional
[2] = system: Bacillus subtilis; experiment: Antimicrobial activity against Bacillus subtilis by BSAC standardized disc susceptibility testing method; assay type: functional
[3] = system: Vibrio parahaemolyticus; experiment: Antimicrobial activity against Vibrio parahaemolyticus by BSAC standardized disc susceptibility testing method; assay type: functional
[4] = system: HL-60; experiment: Cytotoxicity in human HL60 cells assessed as reduction in cel viability incubated for 24 or 72 hrs by SRB or MTT assay; assay type: functional, cell-based
[5] = system: K562; experiment: Cytotoxicity in human K562 cells assessed as reduction in cel viability incubated for 24 or 72 hrs by SRB or MTT assay; assay type: functional, cell-based
[6] = system: Bel-7402; experiment: Cytotoxicity in human Bel7402 cells assessed as reduction in cel viability incubated for 24 or 72 hrs by SRB or MTT assay; assay type: functional, cell-based
[7] = system: HCT-116; experiment: Cytotoxicity in human HCT116 cells assessed as reduction in cel viability incubated for 24 or 72 hrs by SRB or MTT assay; assay type: functional, cell-based
[8] = system: A549; experiment: Cytotoxicity in human A549 cells assessed as reduction in cel viability incubated for 24 or 72 hrs by SRB or MTT assay; assay type: functional, cell-based
[9] = system: HeLa; experiment: Cytotoxicity in human HeLa cells assessed as reduction in cel viability incubated for 24 or 72 hrs by SRB or MTT assay; assay type: functional, cell-based
[10] = system: L02; experiment: Cytotoxicity in human L02 cells assessed as reduction in cel viability incubated for 24 or 72 hrs by SRB or MTT assay; assay type: cell-based
[11] = system: MGC-803; experiment: Cytotoxicity in human MGC803 cells assessed as reduction in cel viability incubated for 24 or 72 hrs by SRB or MTT assay; assay type: functional, cell-based
[12] = Cytotoxicity in human HO8910 cells assessed as reduction in cel viability incubated for 24 or 72 hrs by SRB or MTT assay; assay type: functional, cell-based; details: HO-8910
[13] = system: SH-SY5Y; experiment: Cytotoxicity in human SH-SY5Y cells assessed as reduction in cel viability incubated for 24 or 72 hrs by SRB or MTT assay; assay type: functional, cell-based
[14] = system: PC-3; experiment: Cytotoxicity in human PC3 cells assessed as reduction in cel viability incubated for 24 or 72 hrs by SRB or MTT assay; assay type: functional, cell-based
[15] = system: MDA-MB-231; experiment: Cytotoxicity in human MDA-MB-231 cells assessed as reduction in cel viability incubated for 24 or 72 hrs by SRB or MTT assay; assay type: functional, cell-based
[16] = system: Penicillium crustosum; experiment: Antimicrobial activity against Penicillium crustosum PRB-2 assessed as inhibition of microbial growth at 25 ug/disk by disk diffusion test; assay type: functional, organism-based
[17] = system: Xylaria sp.; experiment: Antimicrobial activity against Xylaria sp. HDN13-249 assessed as inhibition of microbial growth at 25 ug/disk by disk diffusion test; assay type: functional

O=C(O)c1cn(C2CC2)c2cc(N3CCNCC3)c(F)cc2c1=O [CIPROFLOXACIN]
1.56 µM: MIC [1] | MIC [2]
12.5 µM: MIC [3]

CCCCC[C@@H](CCCCCCCCCCCc1cc(O)cc(O)c1C(=O)O)OS(=O)(=O)O
inactive: growth inhibition (GI) [16] | growth inhibition (GI) [17]
< 4.52: pIC50 [4] | pIC50 [5] | pIC50 [6] | pIC50 [7] | pIC50 [8] | pIC50 [9] | pIC50 [10] | pIC50 [11] | pIC50 [12] | pIC50 [13] | pIC50 [14] | pIC50 [15]

CCCCC[C@H](O)CCCCCCCCCCCc1cc(O)cc(O)c1
< 4.52: pIC50 [4] | pIC50 [5] | pIC50 [6] | pIC50 [7] | pIC50 [8] | pIC50 [9] | pIC50 [10] | pIC50 [11] | pIC50 [12] | pIC50 [13] | pIC50 [14] | pIC50 [15]
inactive: growth inhibition (GI) [16] | growth inhibition (GI) [17]
25 µM: MIC [1]
> 200 µM: MIC [2] | MIC [3]

CCCCC[C@H](O)CCCCCCCCCCCc1cc(O)cc(O)c1C(=O)O
6.25 µM: MIC [1]
< 4.52: pIC50 [4] | pIC50 [5] | pIC50 [6] | pIC50 [7] | pIC50 [8] | pIC50 [9] | pIC50 [10] | pIC50 [11] | pIC50 [12] | pIC50 [13] | pIC50 [14] | pIC50 [15]
inactive: growth inhibition (GI) [16] | growth inhibition (GI) [17]
> 200 µM: MIC [2]
12.5 µM: MIC [3]
